# From US6531454B1, “Glycosylated polyamines and methods of use therefor” (The Regents of the University of California, priority 1999, dated 2003)
# Assays:
# Format in all cases: cell-based
# [1] = tested on: MDA-MB-435 cells; assay: In vitro tumor cell growth inhibition (cytotoxicity assay), breast cancer cell line; settings: MDA-MB-435 breast cancer cells
# Protocol: (§1) Cytotoxicity may be measured using a standard methodology for adherent cell lines such as the microculture tetrazolium assay (MTT). Details of this assay have been published (Alley, M C et al, Cancer Research 48:589-601, 1988). Exponentially growing cultures of tumor cells such as the HT-29 colon carcinoma or LX-1 lung tumor can be used to make microtiter plate cultures. Cells can be seeded at 5000-20,000 cells per well in 96-well plates (in 150 μl of media), and grown overnight at 37° C. Test compounds are added, in 10-fold dilutions varying from 10^−4 M to 10^−10 M.
# (§2) Cells are then incubated for 48-72 hours. To determine the number of viable cells in each well, the MTT dye is added (50 μl of 3 mg/ml solution of 3-(4,5-dimethylthiazol-2-yl)-2,5-diphenyltetrazolium bromide in saline). This mixture is incubated at 37° C. for 5 hours, and then 50 μl of 25% SDS, pH 2 is added to each well. After an overnight incubation, the absorbance of each well at 550 mn is read using an ELISA reader. The values for the mean+/−SD of data from quadruplicate wells are calculated, using standard formula as for the %T/C (%viable cells treated/control). Additional methods as described by Inhibition of the growth of tumor cells was determined as described by Patil, S. D., et al J. Med. Chem., 32, 1284 (1989) may be used as well.
# (§3) The concentration of test compound which gives a T/C of 50% growth inhibition is designated as the IC50.
# (§4) Typically, the cells are grown in RPMI 1640 medium supplemented with 10 nM calcium leucovorin instead of folic acid as the folate source, 10% dialyzed fetal calf serum, penicillin and streptomycin. Additional ingredients may be added depending on the particular needs of the cells being cultured. […]
# (§5) Cells are seeded into 96-well plates using a pipeting mechanism such as Perkin-Elmer Pro/pette. […] Inhibition of cell growth may be measured using the MTT dye reduction assay as described above.
# [2] = tested on: OVCAR-4 ovarian carcinoma cell lines; assay: In vitro tumor cell growth inhibition (cytotoxicity assay), ovarian carcinoma cell line; settings: OVCAR-4 ovarian carcinoma cells
# Protocol: as §1, §2, §3, §4, §5
# [3] = tested on: CAKI-1 renal cancer cell lines; assay: In vitro tumor cell growth inhibition (cytotoxicity assay), renal cancer cell line; settings: CAKI-1 renal cancer cells
# Protocol: as §1, §2, §3, §4, §5
# [4] = tested on: KM12 colon cancer cell lines; assay: In vitro tumor cell growth inhibition (cytotoxicity assay), colon cancer cell line; settings: KM12 colon cancer cells
# Protocol: as §1, §2, §3, §4, §5
# [5] = Homo sapiens, read-out: LC50 (the source's name)
compound,measurement,setting,value
"Cl.OCC1OC(NCCNCCNC2OC(CO)C(O)C(O)C2O)C(O)C(O)C1O [Compound 1, 1,3-N,N-di-β-D-glucopyranosyl-diethylenetriamine]",GI50,"[1]; Homo sapiens, read-out: GI50 (inhibited growth by 50%)",1.72 µM
same,LC50,"[1]; Homo sapiens, read-out: LC50 (lethal concentration to kill 50% of the cells)",~6 µM
same,Total growth inhibition (TGI),[1],3.23 µM
same,GI50,[2]; Homo sapiens,1.63 µM
same,CC50,[2]; [5],~7.7 µM
same,TGI,[2],about 3.5 μM
same,TGI,[3],about 10 μM
same,GI50,[3]; Homo sapiens,3.1 µM
same,CC50,[3]; [5],30 µM
same,GI50,[4]; Homo sapiens,~10 µM
same,CC50,[4]; [5],~48 µM
same,TGI,[4],about 22 μM
